Laboratory results as given in EP4722205A1, “HETEROCYCLIC COMPOUND AND NOXIOUS ARTHROPOD-CONTROLLING COMPOSITION CONTAINING SAME” (Sumitomo Chemical Company, Limited, priority 2023, dated 2024).

Tests used:
Format in all cases: in vivo
[1] = tested on: cotton aphids (Aphis gossypii); experiment: Test Method 1: foliar spray on cucumber seedling infested with cotton aphids (Formulation example 1); details: 120 h, spray 10 mL/seedling, examined after 5 days, 25°C, read-out: controlling value
[2] = tested on: cotton worm (Spodoptera litura); experiment: Test Method 3: sprayed cabbage leaves fed to second instar cotton worm; details: 120 h, second instar larvae, after 5 days, 25°C, read-out: mortality of insects
Procedure: (§1) The following tests in the test examples below were conducted at 25°C.
(§2) Cabbage (Brassicae oleracea) seedling (on the developmental stage of the second to third true leaf) is planted in a cup, and the diluted solutions are sprayed into the seedling at a ratio of 20 mL/seedling. Thereafter, the stem and leaf thereof are cut out and then is installed into a cup that is covered with filter paper on the bed of the cup. Five (5) cotton worm (Spodoptera litura) at the second instar larval stage are released into the cup. After 5 days, the number of the surviving insects is counted, and the mortality of insects is calculated by the following equation. [formula]

[3] = tested on: diamondback moth (Plutella xylostella); experiment: Test Method 4: sprayed cabbage leaves fed to second instar diamondback moth; details: 120 h, second instar larvae, after 5 days, 25°C, read-out: mortality of insects
Procedure: (§3) Next, an efficacy of the present compound on controlling harmful arthropods is shown by Test examples. The following tests in the test examples below were conducted at 25°C.
Test compounds are made to a formulation according to a similar method to that described in the Formulation example 1, and thereto is added water containing 0.03 v/v% of Shindain (registered trademark) to prepare a diluted solution containing a prescribed concentration of the test compound.
as §2, with “diamondback moth (Plutella xylostella)” for “cotton worm (Spodoptera litura)”

[4] = tested on: cotton worm (Spodoptera litura); experiment: Test Method 9: sprayed cabbage seedling, third instar cotton worm (Formulation example 5); details: 144 h, third instar larvae, after 6 days, 25°C, read-out: controlling value
Procedure: as §1
(§4) Cabbage (Brassicae oleracea) seedling (on the developmental stage of the third to fourth true leaf) is planted in a cup, and the diluted solutions are sprayed into the seedling at a ratio of 20 mL/seedling. Thereafter, ten (10) cotton worm (Spodoptera litura) at the third instar larval stage are released onto the seedling. After 6 days, the number of the surviving insects is counted, and the mortality of insects is calculated by the following equation. [formula]

[5] = tested on: diamondback moth (Plutella xylostella); experiment: Test Method 10: sprayed cabbage seedling, third instar diamondback moth (Formulation example 5); details: 144 h, third instar larvae, after 6 days, 25°C, read-out: controlling value
Procedure: as §1
as §4, with “diamondback moth (Plutella xylostella)” for “cotton worm (Spodoptera litura)”

[6] = tested on: cotton aphids (Aphis gossypii); experiment: Test Method 11: foliar spray on cucumber seedling infested with cotton aphids (Formulation example 5); details: 120 h, spray 10 mL/seedling, examined after 5 days, 25°C, read-out: controlling value
[7] = tested on: common house mosquitos (Culex pipiens pallens); experiment: Test Method 12: mosquito larvae released into diluted solution; details: 24 h, last instar larvae, after 1 day, 25°C, read-out: controlling value
Procedure: as §1
Into the diluted solution, 30 common house mosquitos (Culex pipiens pallens) at the last instar larval stage are released, and after 1 day, the state of the house mosquito larvae is examined, and the mortality of insects is calculated by the following equation. [formula]

[8] = tested on: housefly (Musca domestica); experiment: Test Method 8: coated container contact test, housefly; details: 24 h, 40 mg/m^2, female adults, after one (1) day, 25°C, read-out: mortality of insects
Procedure: as §3
Acetone solution in which test compounds are adjusted to 800 ppm are prepared, and the solution is poured into a container having an internal volume of 20 mL, and the solution is coated uniformly on an inner face of the container such that the test compound is made to be 40 mg/m^2, and the container is then dried.
Five (5) housefly (Musca domestica) female adults are placed in the container, and the cup is covered with the lid. After the prescribed timing is passed, the state of the housefly is examined, and the mortality of insects is calculated by the following equation. [formula]

SMILES	mortality at 500 ppm [1] [%]	mortality at 500 ppm [2] [%]	mortality at 500 ppm [3] [%]	mortality at 200 ppm [4] [%]	mortality at 50 ppm [5] [%]	mortality at 200 ppm [5] [%]	mortality at 50 ppm [6] [%]	mortality at 200 ppm [6] [%]	mortality at 3.5 ppm [7] [%]	mortality at 50 ppm [4] [%]	mortality at 40 mg/m2 [8] [%]
CCS(=O)(=O)c1c(C(=O)N(C)c2nc3cccc(F)c3s2)nc2ccc(I)cn12 [compound 22]	≥ 90	≥ 80	≥ 80	≥ 80	≥ 80	≥ 80	≥ 90	≥ 90	≥ 90		
CCS(=O)(=O)c1c(C(=O)N(C)c2nc3ccc(F)cc3s2)nc2ccc(I)cn12 [compound 23]	≥ 90	≥ 80	≥ 80	≥ 80	≥ 80		≥ 90	≥ 90	≥ 90	≥ 80	
CCS(=O)(=O)c1c(C(=O)N(C)c2nc3cc(Cl)ccc3s2)nc2ccc(I)cn12 [compound 29]	≥ 90	≥ 80	≥ 80	≥ 80	≥ 80	≥ 80		≥ 90	≥ 90	≥ 80	
CCS(=O)(=O)c1c(C(=O)N(C)c2nc3ccccc3s2)nc2ccc(I)cn12 [compound 31]	≥ 90	≥ 80	≥ 80	≥ 80	≥ 80	≥ 80	≥ 90	≥ 90	≥ 90	≥ 80	
CCS(=O)(=O)c1c(C(=O)N(C)c2nc3c(F)cc(F)cc3s2)nc2ccc(I)cn12 [compound 35]	≥ 90	≥ 80	≥ 80	≥ 80	≥ 80	≥ 80			≥ 90	≥ 80	
CCS(=O)(=O)c1c(C(=O)N(C)c2nc3ccc(F)cc3o2)nc2ccc(I)cn12 [compound 40]	≥ 90		≥ 80					≥ 90	≥ 90		
CCS(=O)(=O)c1c(C(=O)N(C)c2nc3cc(Cl)ccc3o2)nc2ccc(I)cn12 [compound 41]	≥ 90		≥ 80		≥ 80	≥ 80	≥ 90	≥ 90	≥ 90		
CCS(=O)(=O)c1c(C(=O)N(C)c2nc3cc(F)c(F)cc3o2)nc2ccc(I)cn12 [compound 42]	≥ 90	≥ 80							≥ 90		
CCS(=O)(=O)c1c(C(=O)N(C)c2nc3cc(F)c(F)cc3s2)nc2ccc(Br)cn12 [compound 43]		≥ 80	≥ 80	≥ 80				≥ 90		≥ 80	≥ 80
CCS(=O)(=O)c1cccnc1C(=O)N(C)c1nc2cc(C(F)(F)F)ccc2n1C [compound 56]	≥ 90		≥ 80						≥ 90		
CCSc1c(C(=O)N(C)c2nc3cc(F)ccc3n2C)nc2ccc(I)cn12 [compound 70]	≥ 90						≥ 90	≥ 90	≥ 90		
CCS(=O)(=O)c1c(C(=O)N(C)c2nc3ncc(F)cc3s2)nc2ccc(I)cn12 [compound 76]	≥ 90	≥ 80	≥ 80	≥ 80	≥ 80	≥ 80		≥ 90	≥ 90	≥ 80	
CCS(=O)(=O)c1cc(-c2ccccn2)cnc1C(=O)N(C)c1nc2cc(F)c(F)cc2s1 [compound 109]	≥ 90	≥ 80	≥ 80	≥ 80	≥ 80	≥ 80	≥ 90	≥ 90	≥ 90	≥ 80	
CCS(=O)(=O)c1cc(-c2ncccn2)cnc1C(=O)N(C)c1nc2cc(F)c(F)cc2s1 [compound 111]	≥ 90	≥ 80	≥ 80	≥ 80	≥ 80	≥ 80	≥ 90	≥ 90	≥ 90	≥ 80	
CCS(=O)(=O)c1cc(C2CC2)cnc1C(=O)N(C)c1nc2cc(F)c(F)cc2s1 [compound 115]	≥ 90	≥ 80	≥ 80	≥ 80	≥ 80	≥ 80	≥ 90	≥ 90	≥ 90	≥ 80	
CCOc1cnc(C(=O)N(C)c2nc3cc(F)c(F)cc3s2)c(S(=O)(=O)CC)c1 [compound 125]	≥ 90	≥ 80	≥ 80	≥ 80	≥ 80	≥ 80	≥ 90	≥ 90	≥ 90	≥ 80	
CCS(=O)(=O)c1ccc(-c2ncccn2)nc1C(=O)N(C)c1nc2cc(F)c(F)cc2s1 [compound 130]	≥ 90	≥ 80	≥ 80	≥ 80	≥ 80	≥ 80	≥ 90	≥ 90	≥ 90	≥ 80	
CCS(=O)(=O)c1ccc(-n2cncn2)nc1C(=O)N(C)c1nc2cc(F)c(F)cc2s1 [compound 131]		≥ 80	≥ 80	≥ 80	≥ 80	≥ 80			≥ 90		
CCS(=O)(=O)c1ccc(NC)nc1C(=O)N(C)c1nc2cc(F)c(F)cc2s1 [compound 134]	≥ 90	≥ 80	≥ 80	≥ 80	≥ 80	≥ 80	≥ 90	≥ 90	≥ 90	≥ 80	
CCS(=O)(=O)c1ccc(N(C)C)nc1C(=O)N(C)c1nc2cc(F)c(F)cc2s1 [compound 135]		≥ 80	≥ 80		≥ 80	≥ 80	≥ 90	≥ 90	≥ 90		
CCS(=O)(=O)c1c(C(=O)N(C)c2nc3cc(F)c(F)cc3s2)nn(C)c1C1CC1 [compound 144]	≥ 90	≥ 80	≥ 80		≥ 80	≥ 80		≥ 90	≥ 90		
